In US6790833B2, “Antifungal and antibacterial agents” (priority 2001, dated 2004):
Where a SMILES comes first, the peptide text is derived from it.

Key:
C. albicans [1] = assay: Antifungal (cidal) activity assay, loss of cell viability; format: cell-based, Candida albicans; details: for Loss of Cell viability (%): Candida albicans, 6.25 μM, pH 7.4
Text: (§1) Azole-sensitive (# 2-76) and azole-resistant (# 12-99) clinical isolates of C. albicans were a gift from Dr. Theodore C. White (University of Washington and Seattle Biomedical Research Institute, Seattle, Wash.). An azole-sensitive Candida glabrata (C. glabrata) was purchased from ATCC (ATCC 90030) and its azole-resistant counterpart, clinical isolate 65C, was obtained from Dr. John E. Bennett (National Institute of Allergy and Infectious Diseases, Bethesda, Md.). A clinical isolate of Candida krusei (C. krusei) was obtained from the Erie County Medical Center, Buffalo, N.Y. Amphotericin B-sensitive (CN2) and -resistant (CN2843) C. neoformans strains were obtained from AIDS patients with cryptococcal meningitis and were generously provided by Dr. John H. Rex (University of Texas Medical School, Houston, Tex.). Additionally, Saccharomyces cerevisiae (S. serevisiae) strain S288C was provided by Dr. D. Kosman, Department of Biochemistry, University at Buffalo, the State University of New York. All fungi were streaked and grown on SAB plates at 37° C., except S. cerevisiae, which was grown at 30° C. until large colonies were formed. One colony was then picked and resuspended in Na phosphate buffer (pH 7.4) and the concentration was adjusted to 1×10^5 cell/ml for the antifungal assay described below.
(§2) Two fold serial dilutions of each peptide (ranging from 100 μM down to 1.5625 μM) in 20 μl of 10 mM Na phosphate buffer, pH 7.4, were incubated with an equal volume of bacterial or fungal strain (10^5 cells/ml) for 1.5 hours at 30° C. for S. cerevisiae and 37° C. for the rest of strains tested. At the end of incubation, the samples were diluted 20 fold and aliquots (˜120 cells) of each sample were plated on appropriate plates depending on the strain tested, as indicated above. Plates were incubated for 1 to 7 days aerobically or anaerobically, depending on the strain tested. Colonies were then counted, and the loss of cell viability was plotted as a function of protein concentration. Fungicidal activities against C. albicans and C. neoformans were also tested at 4° C.
(§3) To test the effect of inhibitors of oxidative phosphorylation in the mitochondrial system on peptide-induced killing, C. albicans and C. neoformans (CN2) were preincubated with either 20 mM sodium azide or 300 μM CCCP for 2 hours at 37° C. The cidal assays were then carried out as described above. In separate control experiments, both inhibitors were evaluated for their toxicity toward C. albicans and C. neoformans (CN2) in the absence of peptides. At these concentrations, neither compound had any cidal effect. In addition, the fungicidal activities of MUC7 20-mer and Hsn-5 (25 μM) in 10 mM Na phosphate buffer (pH 7.4) in the presence of varying concentrations (1-50 mM) of Ca^++ (as CaCl2) or Mg^++ (as MgCl2) were examined.
(§4) A time course study of peptide-induced killing was statistically analyzed by student t-test.
(§5) Two fold serial dilutions of each peptide (ranging from 50 or 25 μM down to 1.5625 μM) in 20 μl of 10 mM Na phosphate buffer, pH 7.4, were incubated with an equal volume of fungal strain (10^5 cells/ml, also in Na phosphate buffer) for 1.5 hours at 37°. At the end of incubation, the samples were diluted 20 fold with the same buffer and aliquots (˜150 cells) of each sample were plated on SAB plates. Plates were incubated for 1 to 2 days for C. albicans and C. neoformans, respectively. Colonies were then counted, and the loss of cell viability was plotted as a function of protein concentration. The statistical analysis was as described in Example 1.

C. neoformans [2] = assay: as above; format: cell-based, Cryptococcus neoformans; details: for Loss of Cell viability (%): Cryptococcus neoformans, 6.25 μM, pH 7.4
Text: as §1, §2, §3, §4, §5

C. albicans [3] = assay: Fungal transmembrane potential, DiSC3(5) dye release; format: cell-based, Candida albicans; details: peptide 18 μM, 1500 second
Description: (§6) Peptide-induced permeabilization of C. albicans and C. neoformas cell membranes was monitored by measuring changes in transmembrane potential. Measurements were carried out using the transmembrane potential sensitive dye 3,3′-dipropyl-2,2′-thiadicarbocyanine iodide (DiSC3(5)). Fungi were grown overnight on SAB plates and resuspended in 10 mM Na phosphate buffer pH 7.4 at a concentration of 1×10^5 cells/ml. Dye was diluted in ethanol to achieve a final concentration of 714 nM. […] The use of this dye in fungal cells to monitor changes in permeabilization is reliable and well documented. This cationic dye accumulates on membranes, is translocated into the lipid bilayer and aggregates within the confined membrane interior. Once aggregated inside the cell, the molecules interact with each other, losing energy, and decreasing fluorescence through a process called quenching. If permeabilization occurs, dye is released into the medium and it regains its fluorescent properties, allowing it to be detected. Experiments were carried out using a spectrofluorimeter (Perkin Elmer LS 50 B). A water bath and circulator was connected to the machine.

C. neoformans [4] = assay: as above; format: cell-based, Cryptococcus neoformans; details: peptide 18 μM, 1500 second
Description: as §6

C. albicans [5] = assay: Fluorescence light and confocal microscopy, internalization of FITC-labeled peptide; format: cell-based, Candida albicans
Description: (§7) The internalization of MUC7 20-mer into fungi was visualized in C. albicans and C. neoformans. Untreated cells (10^7) or cells preincubated with 20 mM sodium azide, 300 μM CCCP, 50 mM Ca^++ or 50 mM Mg^++ were then treated with 50 μM FITC-MUC7 20-mer for 45-90 minutes in 100 μl of Na phosphate buffer (10 mM, pH 7.4) at 37° C. Untreated cells were also incubated with 50 μM FITC-MUC7 20-mer at 4° C. The cells were then extensively washed with phosphate buffer, concentrated and resuspended in the same buffer. The cell suspension was then quickly mounted on slides with sealed cover-slips. Fluorescence light micrographs were made on a Nikon Optiphot microscope, with a fluorescent light source.
(§8) The intracellular localization of FITC-MUC7-20mer was investigated in a double-labeling experiment using MitoTracker Red mitochondrial probe. C. albicans and C. neoformans were incubated with 500 nM MitoTracker Red in 10 mM Na phosphate buffer, pH 7.4 for 15 minutes at room temperature, washed three times with the same buffer, and subsequently incubated with 50 μM FITC-MUC7 20-mer. After 20 min. incubation at 37° C., the suspension was washed with phosphate buffer extensively. The cell suspension was then quickly mounted on slides with sealed cover-slips. Confocal fluorescence microscopy was performed with a BioRad MRC-1024 confocal microscope system with Krypton-argon laser which outputs 488, 568 and 647 nm excitation line and Nikon upright epifluorescence microscope (Zeiss 60× oil immersion planApp objective with 1.4 numerical aperture).
(§9) The internalization of MUC7 20-mer and 12-mer-3 into fungi was visualized using FITC labeled peptides. Cells (10^7) were treated with 50 μM FITC-MUC7 20-mer or 12-mer-3 for 45-90 mins in 100 μl of Na phosphate buffer (10 mM, pH 7.4) at 37° C. The cells were then processed and visualized as described in Example 1.

C. neoformans [6] = assay: as above; format: cell-based, Cryptococcus neoformans
Description: as §7, §8, §9

A. actinomycetemcomitans = assay: Fluorescence microscopy, internalization of FITC-labeled peptide in bacteria; format: cell-based, Actinobacillus actinomycetemcomitans; details: data not shown
Text: In order to visualize the association of 20-mer with fungi or bacteria and its fungal cellular localization, N-terminal FITC-labeled MUC7 20-mer was used. […] In addition, confocal fluorescence microscopy was used to study the intracellular target of the peptides.

[7] = 4° C., 20 mM sodium azide, 300 μM CCCP

CC[C@H](C)[C@H](NC(=O)[C@H](Cc1ccccc1)NC(=O)[C@@H]1CCCN1C(=O)[C@H](CCCCN)NC(=O)[C@H](CCC(N)=O)NC(=O)[C@H](Cc1c[nH]cn1)NC(=O)[C@H](C)NC(=O)[C@@H](N)CC(C)C)C(=O)N[C@@H](CCCNC(=N)N)C(=O)N[C@@H](CCCCN)C(=O)N[C@@H](CO)C(=O)N[C@@H](Cc1ccc(O)cc1)C(=O)N[C@@H](CCCCN)C(=O)N[C@@H](CS)C(=O)N[C@@H](CC(C)C)C(=O)N[C@@H](Cc1c[nH]cn1)C(=O)N[C@@H](CCCCN)C(=O)N[C@@H](CCCNC(=N)N)C(=O)N[C@@H](CS)C(=O)N[C@@H](CCCNC(=N)N)C(=O)O [Peptide 20-mer] (H-LAHQKPFIRKSYKCLHKRCR-OH; N-terminus and C-terminus assumed)
killing activity at 4° C. (C. albicans [1]): ~90% | effect of pretreatment with CCCP or sodium azide on peptide-induced killing (C. albicans [1]; C. albicans, 300 μM CCCP or 20 mM sodium azide, 2 hours): did not protect | effect of 1 mM Ca++ or Mg++ on anticandidal activity (C. albicans [1]; C. albicans, 1 mM Ca++ or Mg++, peptide 25 μM): limited effect | anticandidal activity sustained in the presence of Ca++ or Mg++ (C. albicans [1]; C. albicans, 10 mM Ca++ or Mg++, peptide 25 μM): 10% | Loss of Cell viability (%) (C. albicans [1]; 15 min): 42 + 5% | Loss of Cell viability (%) (C. albicans [1]; 30 min): 52 + 1% | Loss of Cell viability (%) (C. albicans [1]; 45 min): 64 + 3% | Loss of Cell viability (%) (C. albicans [1]; 90 min): 74 + 6% | killing retained in the presence of Ca++ (C. neoformans [2]; 25 μM): 90% | killing retained in the presence of Mg++ (C. neoformans [2]; 25 μM): 84% | effect of pretreatment with CCCP or sodium azide on peptide-induced killing (C. neoformans [2]; C. neoformans, 300 μM CCCP or 20 mM sodium azide, 2 hours): did not protect | activity at 4° C. (C. neoformans [2]; C. neoformans, 4° C.): hardly affected | Loss of Cell viability (%) (C. neoformans [2]; 30 min): 96 + 2% | Loss of Cell viability (%) (C. neoformans [2]; 45 min): 98 + 1% | Loss of Cell viability (%) (C. neoformans [2]; 90 min): 100 + 0% | release of DiSC3(5) dye (loss of membrane potential) (C. albicans [3]): rapid release of dye | release of DiSC3(5) dye (loss of membrane potential) (C. neoformans [4]): rapid release of dye | internalization of FITC-labeled peptide (C. albicans [5]; 50 μM, 45-90 minutes, 37° C.): internalization is observed | uptake at 4° C. or after pretreatment with sodium azide or CCCP (C. albicans [5]; [7]): did not affect uptake | internalization of FITC-labeled peptide (C. neoformans [6]; 50 μM, 45-90 minutes, 37° C.): internalization is observed | uptake at 4° C. or after pretreatment with sodium azide or CCCP (C. neoformans [6]; [7]): did not affect uptake | internalization in bacterial cells (A. actinomycetemcomitans): seen on the cell membrane and the inside
